Like-named read-outs stand apart in the source and are kept apart here.
Assays:
Type in all cases: biochemical
[1] = target: T1, NEK2 (Homo sapiens, UniProt P51955); experiment: Kinome profiling NEK2; settings: read-out: Inhibitory activity NEK2; for inhibition at 0.1 µM: 100 nM
T1 sequence (P51955 1-445): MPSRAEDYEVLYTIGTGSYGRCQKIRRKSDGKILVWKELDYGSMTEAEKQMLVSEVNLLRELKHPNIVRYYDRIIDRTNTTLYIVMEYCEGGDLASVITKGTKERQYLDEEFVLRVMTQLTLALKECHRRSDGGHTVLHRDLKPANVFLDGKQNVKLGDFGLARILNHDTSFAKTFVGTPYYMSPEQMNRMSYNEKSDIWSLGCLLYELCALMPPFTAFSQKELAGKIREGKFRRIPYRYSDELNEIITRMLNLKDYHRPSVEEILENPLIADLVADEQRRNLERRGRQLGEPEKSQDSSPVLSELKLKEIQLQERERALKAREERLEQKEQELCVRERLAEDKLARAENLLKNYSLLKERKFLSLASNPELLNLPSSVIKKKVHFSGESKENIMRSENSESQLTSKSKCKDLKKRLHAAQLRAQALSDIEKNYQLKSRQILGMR
Protocol: (§1) . The kinome-wide selectivity was determined following the methods previously reported by Mohedas et al., ACS Chem Biol 2013, 8, 1291-1302 and Sanvitale et al., PLoS One 2013, 8, e62721.

[2] = target: T2, PRKD2 (Homo sapiens, UniProt Q9BZL6); experiment: Kinome profiling PRKD2; settings: for inhibition at 0.1 µM: 100 nM
T2 sequence (Q9BZL6 1-878): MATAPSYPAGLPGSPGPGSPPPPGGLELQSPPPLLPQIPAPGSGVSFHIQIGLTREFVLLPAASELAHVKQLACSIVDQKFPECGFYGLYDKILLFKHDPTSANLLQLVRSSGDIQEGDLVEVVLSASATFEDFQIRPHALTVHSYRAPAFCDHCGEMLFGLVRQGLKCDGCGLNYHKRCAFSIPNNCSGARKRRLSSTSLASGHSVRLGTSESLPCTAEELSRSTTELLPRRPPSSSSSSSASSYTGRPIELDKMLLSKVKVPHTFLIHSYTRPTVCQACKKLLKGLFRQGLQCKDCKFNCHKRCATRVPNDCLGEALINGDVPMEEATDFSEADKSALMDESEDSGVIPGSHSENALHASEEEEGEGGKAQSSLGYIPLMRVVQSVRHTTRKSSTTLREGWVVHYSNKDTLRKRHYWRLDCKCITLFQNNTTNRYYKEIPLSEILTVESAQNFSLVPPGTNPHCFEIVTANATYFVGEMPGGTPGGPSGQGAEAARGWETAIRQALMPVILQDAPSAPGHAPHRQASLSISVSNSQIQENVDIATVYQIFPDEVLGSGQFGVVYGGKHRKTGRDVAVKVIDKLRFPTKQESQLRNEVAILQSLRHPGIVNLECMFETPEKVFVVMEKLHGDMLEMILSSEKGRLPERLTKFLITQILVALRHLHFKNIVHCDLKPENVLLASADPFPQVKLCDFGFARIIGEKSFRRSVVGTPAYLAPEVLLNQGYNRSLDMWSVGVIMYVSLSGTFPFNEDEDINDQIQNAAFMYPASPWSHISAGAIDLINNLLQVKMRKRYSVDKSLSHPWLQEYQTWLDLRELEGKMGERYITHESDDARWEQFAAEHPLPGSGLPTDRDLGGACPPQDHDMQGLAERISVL
Protocol: as §1

[3] = target: PHKγ1 (Homo sapiens, UniProt Q16816); experiment: Kinome profiling PHKγ1; settings: read-out: Inhibitory activity PHKγ1; for inhibition at 0.1 µM: 100 nM
Sequence of PHKγ1 (Q16816 whole entry): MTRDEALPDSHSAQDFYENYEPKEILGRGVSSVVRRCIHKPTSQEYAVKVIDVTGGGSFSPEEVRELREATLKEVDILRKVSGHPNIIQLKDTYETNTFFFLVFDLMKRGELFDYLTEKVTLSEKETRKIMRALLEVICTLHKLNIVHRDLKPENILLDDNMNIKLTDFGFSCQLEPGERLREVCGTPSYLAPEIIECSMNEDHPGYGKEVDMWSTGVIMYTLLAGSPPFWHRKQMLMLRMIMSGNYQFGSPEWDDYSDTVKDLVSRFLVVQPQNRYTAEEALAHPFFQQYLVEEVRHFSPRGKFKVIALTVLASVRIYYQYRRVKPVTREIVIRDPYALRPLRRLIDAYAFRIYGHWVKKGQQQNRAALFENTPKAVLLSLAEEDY
Protocol: as §1

[4] = target: MAPK3 (Homo sapiens, UniProt P27361); experiment: Kinome profiling MAPK3; settings: read-out: Inhibitory activity MAPK3; for inhibition at 0.1 µM: 100 nM
Sequence of MAPK3 (P27361 whole entry): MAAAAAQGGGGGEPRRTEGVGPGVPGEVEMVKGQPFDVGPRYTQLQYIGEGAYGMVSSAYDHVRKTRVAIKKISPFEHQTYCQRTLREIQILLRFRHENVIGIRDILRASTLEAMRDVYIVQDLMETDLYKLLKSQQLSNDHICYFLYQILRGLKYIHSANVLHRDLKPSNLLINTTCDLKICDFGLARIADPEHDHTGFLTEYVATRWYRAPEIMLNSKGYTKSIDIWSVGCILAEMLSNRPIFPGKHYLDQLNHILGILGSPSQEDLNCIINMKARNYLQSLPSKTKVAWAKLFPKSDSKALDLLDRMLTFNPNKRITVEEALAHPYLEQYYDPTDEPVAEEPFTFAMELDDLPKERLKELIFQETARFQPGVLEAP
Protocol: as §1

[5] = target: MSK1 (Homo sapiens, UniProt O75582); experiment: Kinome profiling MSK1; settings: read-out: Inhibitory activity MSK1; for inhibition at 0.1 µM: 100 nM
Sequence of MSK1 (O75582 whole entry): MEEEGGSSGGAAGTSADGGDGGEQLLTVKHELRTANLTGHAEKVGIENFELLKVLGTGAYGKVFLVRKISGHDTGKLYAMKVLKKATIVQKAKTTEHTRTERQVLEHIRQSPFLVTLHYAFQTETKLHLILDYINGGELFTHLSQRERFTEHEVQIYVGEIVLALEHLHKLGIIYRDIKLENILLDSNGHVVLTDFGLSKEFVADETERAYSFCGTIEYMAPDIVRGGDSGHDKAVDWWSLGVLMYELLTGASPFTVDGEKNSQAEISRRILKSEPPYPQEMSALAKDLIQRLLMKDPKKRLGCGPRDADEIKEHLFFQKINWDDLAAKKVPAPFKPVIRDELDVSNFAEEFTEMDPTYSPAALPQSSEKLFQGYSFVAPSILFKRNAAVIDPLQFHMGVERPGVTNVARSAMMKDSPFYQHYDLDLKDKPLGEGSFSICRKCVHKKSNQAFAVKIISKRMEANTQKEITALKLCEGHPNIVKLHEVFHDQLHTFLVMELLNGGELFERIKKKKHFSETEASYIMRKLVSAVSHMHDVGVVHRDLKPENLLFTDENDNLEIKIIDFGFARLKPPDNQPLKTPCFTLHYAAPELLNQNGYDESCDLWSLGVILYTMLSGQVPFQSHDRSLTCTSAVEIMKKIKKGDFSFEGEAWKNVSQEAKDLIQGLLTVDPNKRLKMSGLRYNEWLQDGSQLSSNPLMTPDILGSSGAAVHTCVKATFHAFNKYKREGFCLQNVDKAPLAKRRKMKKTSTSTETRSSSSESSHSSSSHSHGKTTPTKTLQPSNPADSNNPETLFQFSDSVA
Protocol: as §1

[6] = target: LOK (Homo sapiens, UniProt O94804); experiment: Kinome profiling LOK; settings: read-out: Inhibitory activity LOK; for inhibition at 0.1 µM: 100 nM
Sequence of LOK (O94804 whole entry): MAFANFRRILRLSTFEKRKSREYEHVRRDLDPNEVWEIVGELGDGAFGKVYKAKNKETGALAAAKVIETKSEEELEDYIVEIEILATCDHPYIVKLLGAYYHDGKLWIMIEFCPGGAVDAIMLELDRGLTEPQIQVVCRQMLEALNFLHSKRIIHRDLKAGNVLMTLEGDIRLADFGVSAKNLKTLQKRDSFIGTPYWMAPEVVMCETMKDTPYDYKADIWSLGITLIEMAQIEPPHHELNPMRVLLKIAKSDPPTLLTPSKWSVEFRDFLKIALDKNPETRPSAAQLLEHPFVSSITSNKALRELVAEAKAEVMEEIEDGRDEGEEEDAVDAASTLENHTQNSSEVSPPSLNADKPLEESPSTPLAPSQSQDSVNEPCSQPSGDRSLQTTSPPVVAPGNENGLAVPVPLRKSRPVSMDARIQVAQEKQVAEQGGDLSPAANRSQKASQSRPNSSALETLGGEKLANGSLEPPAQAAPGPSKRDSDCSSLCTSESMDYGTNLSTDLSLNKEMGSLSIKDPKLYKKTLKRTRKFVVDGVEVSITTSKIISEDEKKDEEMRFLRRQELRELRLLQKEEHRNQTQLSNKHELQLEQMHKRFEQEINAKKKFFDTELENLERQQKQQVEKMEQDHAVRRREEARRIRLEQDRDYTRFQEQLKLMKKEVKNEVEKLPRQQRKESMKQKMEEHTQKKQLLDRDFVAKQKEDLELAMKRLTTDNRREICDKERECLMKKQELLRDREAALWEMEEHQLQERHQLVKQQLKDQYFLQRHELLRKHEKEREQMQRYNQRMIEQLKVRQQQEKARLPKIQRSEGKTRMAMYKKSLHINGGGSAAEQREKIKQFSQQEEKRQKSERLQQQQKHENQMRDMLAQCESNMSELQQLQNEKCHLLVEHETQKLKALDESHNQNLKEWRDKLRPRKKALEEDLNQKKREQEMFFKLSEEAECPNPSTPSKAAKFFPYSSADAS
Protocol: as §1

[7] = target: ROS (Homo sapiens, UniProt P08922); experiment: Kinome profiling ROS; settings: read-out: Inhibitory activity ROS; for inhibition at 0.1 µM: 100 nM
Protocol: as §1

[8] = target: SPHK1 (Homo sapiens, UniProt Q9NYA1); experiment: Kinome profiling SPHK1; settings: read-out: Inhibitory activity SPHK1; for inhibition at 0.1 µM: 100 nM
Sequence of SPHK1 (Q9NYA1 whole entry): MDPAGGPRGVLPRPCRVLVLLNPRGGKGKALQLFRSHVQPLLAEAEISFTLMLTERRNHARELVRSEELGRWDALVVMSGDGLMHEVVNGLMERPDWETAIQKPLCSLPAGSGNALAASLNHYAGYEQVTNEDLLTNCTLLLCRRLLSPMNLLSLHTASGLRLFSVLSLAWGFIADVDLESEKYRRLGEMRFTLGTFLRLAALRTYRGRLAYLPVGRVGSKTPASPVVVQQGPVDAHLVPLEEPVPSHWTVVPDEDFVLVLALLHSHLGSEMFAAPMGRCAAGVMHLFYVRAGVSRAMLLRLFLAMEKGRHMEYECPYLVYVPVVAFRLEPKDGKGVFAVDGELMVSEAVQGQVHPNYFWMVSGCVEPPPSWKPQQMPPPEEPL
Protocol: as §1

[9] = target: PAK5 (Homo sapiens, UniProt Q9P286); experiment: Kinome profiling PAK5; settings: read-out: Inhibitory activity PAK5; for inhibition at 0.1 µM: 100 nM
Sequence of PAK5 (Q9P286 whole entry): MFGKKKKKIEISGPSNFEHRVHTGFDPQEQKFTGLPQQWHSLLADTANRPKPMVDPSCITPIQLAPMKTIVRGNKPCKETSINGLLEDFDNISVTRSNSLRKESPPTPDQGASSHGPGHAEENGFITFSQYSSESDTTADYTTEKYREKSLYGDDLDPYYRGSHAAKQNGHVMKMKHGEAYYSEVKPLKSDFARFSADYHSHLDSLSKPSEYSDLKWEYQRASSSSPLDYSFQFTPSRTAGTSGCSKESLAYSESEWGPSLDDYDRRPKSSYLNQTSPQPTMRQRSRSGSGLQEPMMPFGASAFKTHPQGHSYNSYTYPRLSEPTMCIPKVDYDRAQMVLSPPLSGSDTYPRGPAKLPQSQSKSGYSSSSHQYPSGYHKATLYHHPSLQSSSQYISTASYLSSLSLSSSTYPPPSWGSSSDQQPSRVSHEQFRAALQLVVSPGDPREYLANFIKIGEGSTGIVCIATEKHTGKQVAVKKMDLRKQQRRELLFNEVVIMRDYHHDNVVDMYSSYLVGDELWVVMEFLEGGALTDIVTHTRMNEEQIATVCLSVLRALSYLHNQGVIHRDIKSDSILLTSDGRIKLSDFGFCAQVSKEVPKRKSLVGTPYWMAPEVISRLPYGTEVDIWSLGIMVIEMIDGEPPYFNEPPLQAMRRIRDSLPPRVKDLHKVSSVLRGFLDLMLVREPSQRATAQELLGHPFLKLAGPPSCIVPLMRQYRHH
Protocol: as §1

[10] = target: RON (Homo sapiens, UniProt Q04912); experiment: Kinome profiling RON; settings: read-out: Inhibitory activity RON; for inhibition at 0.1 µM: 100 nM
Protocol: as §1

[11] = target: CLK3 (Homo sapiens, UniProt P49761); experiment: Kinome profiling CLK3; settings: read-out: Inhibitory activity CLK3; for inhibition at 0.1 µM: 100 nM
Sequence of CLK3 (P49761 whole entry): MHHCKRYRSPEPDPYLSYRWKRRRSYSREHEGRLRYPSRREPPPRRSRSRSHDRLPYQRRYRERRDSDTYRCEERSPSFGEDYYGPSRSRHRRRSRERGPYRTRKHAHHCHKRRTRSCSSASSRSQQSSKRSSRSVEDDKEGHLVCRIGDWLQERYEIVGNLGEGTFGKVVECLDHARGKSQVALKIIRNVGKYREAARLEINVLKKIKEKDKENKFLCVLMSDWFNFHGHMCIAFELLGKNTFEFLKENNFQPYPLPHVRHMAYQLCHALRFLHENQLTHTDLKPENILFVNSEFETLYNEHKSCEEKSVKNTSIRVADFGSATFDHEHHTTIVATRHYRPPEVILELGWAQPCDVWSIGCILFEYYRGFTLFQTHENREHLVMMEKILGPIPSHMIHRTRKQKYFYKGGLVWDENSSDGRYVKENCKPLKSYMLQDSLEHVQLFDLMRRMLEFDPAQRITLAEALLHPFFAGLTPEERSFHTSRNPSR
Protocol: as §1

[12] = target: PI4-K-β (Homo sapiens, UniProt Q9UBF8); experiment: Kinome profiling PI4-K-β; settings: read-out: Inhibitory activity PI4-K-β; for inhibition at 0.1 µM: 100 nM
Sequence of PI4-K-β (Q9UBF8 whole entry): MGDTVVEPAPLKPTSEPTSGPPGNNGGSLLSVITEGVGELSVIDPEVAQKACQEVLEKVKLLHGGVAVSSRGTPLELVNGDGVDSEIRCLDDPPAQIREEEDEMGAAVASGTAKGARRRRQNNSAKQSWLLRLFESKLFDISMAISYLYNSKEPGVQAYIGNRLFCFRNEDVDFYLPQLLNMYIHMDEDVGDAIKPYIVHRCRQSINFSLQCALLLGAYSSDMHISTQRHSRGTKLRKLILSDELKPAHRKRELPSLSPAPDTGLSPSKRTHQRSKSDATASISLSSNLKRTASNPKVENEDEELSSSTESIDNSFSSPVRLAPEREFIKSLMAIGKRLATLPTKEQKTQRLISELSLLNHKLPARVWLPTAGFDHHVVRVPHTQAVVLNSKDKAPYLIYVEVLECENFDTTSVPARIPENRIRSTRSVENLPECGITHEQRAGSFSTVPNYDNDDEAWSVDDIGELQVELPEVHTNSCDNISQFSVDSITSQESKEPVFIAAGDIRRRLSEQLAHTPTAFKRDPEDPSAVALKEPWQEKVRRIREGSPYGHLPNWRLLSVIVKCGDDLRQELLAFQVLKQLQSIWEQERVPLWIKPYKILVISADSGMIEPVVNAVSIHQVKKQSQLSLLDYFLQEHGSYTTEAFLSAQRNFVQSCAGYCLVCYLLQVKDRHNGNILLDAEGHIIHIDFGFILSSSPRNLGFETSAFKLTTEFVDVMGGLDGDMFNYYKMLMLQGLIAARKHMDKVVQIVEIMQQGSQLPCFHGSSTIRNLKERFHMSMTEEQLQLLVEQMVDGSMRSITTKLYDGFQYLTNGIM
Protocol: as §1

[13] = target: MAPK1 (Homo sapiens, UniProt P28482); experiment: Kinome profiling MAPK1; settings: read-out: Inhibitory activity MAPK1; for inhibition at 0.1 µM: 100 nM
Protocol: as §1

[14] = Table 4, read-out: Inhibitory Activity PRKD2
[15] = read-out: Inhibitory activity PRKD2

Row | SMILES | inhibition at 0.1 µM [1] [%] | inhibition at 1 µM [1] [%] | inhibition at 0.1 µM [2, 15] [%] | inhibition at 1 µM [2, 15] [%] | inhibition at 0.1 µM [3] [%] | inhibition at 1 µM [3] [%] | inhibition at 0.1 µM [4] [%] | inhibition at 1 µM [4] [%] | inhibition at 0.1 µM [5] [%] | inhibition at 1 µM [5] [%] | inhibition at 0.1 µM [6] [%] | inhibition at 1 µM [6] [%] | inhibition at 0.1 µM [7] [%] | inhibition at 1 µM [7] [%] | inhibition at 0.1 µM [8] [%] | inhibition at 1 µM [8] [%] | inhibition at 0.1 µM [9] [%] | inhibition at 1 µM [9] [%] | inhibition at 0.1 µM [10] [%] | inhibition at 1 µM [10] [%] | also measured
1 | COc1cc(-c2cc(-c3ccc(N4CCNCC4)cc3)cnc2C)cc(OC)c1OC [Compound 10, 1-(4-(6-methyl-5-(3,4,5-trimethoxyphenyl)pyridin-3-yl)phenyl)piperazine] | 3 | 2 | 16 | 57 | 3 | 3 | 1 | 2 | 1 | 0 | 9 | 47 | 2 | 2 | 0 | 0 | 1 | 1 | 2 | 6 | inhibition at 0.1 µM [2, 14]: 16%; inhibition at 1 µM [2, 14]: 57%; inhibition at 0.1 µM [11]: 9%; inhibition at 1 µM [11]: 12%; inhibition at 0.1 µM [12]: -10%; inhibition at 1 µM [12]: -15%; inhibition at 0.1 µM [13]: 1%; inhibition at 1 µM [13]: 1%
2 | COc1cc(-c2cc(-c3ccc(N4CCNCC4)cc3)cnc2N)cc(OC)c1OC [Compound 15, 5-(4-(piperazin-1-yl)phenyl)-3-(3,4,5-trimethoxyphenyl)pyridin-2-amine] | 4 | 2 | 12 | 54 | 3 | 4 | 1 | 0 | 0 | 0 | 32 | 73 | 1 | 7 | 2 | -12 | 9 | 6 | 3 | 17 | inhibition at 0.1 µM [11]: 0%; inhibition at 1 µM [11]: 0%; inhibition at 0.1 µM [12]: 1%; inhibition at 1 µM [12]: 1%; inhibition at 0.1 µM [13]: 3%; inhibition at 1 µM [13]: 6%
